Values quoted from earlier work, collected in patent publication US20240325295A1, “AQUEOUS BUMETANIDE-CONTAINING LIQUID” (DriPel B.V., priority 2021, published 2024).
≈ marks a conversion by molar mass, not a printed value.

Tests used:
[1] = at 25° C.
[2] = at 4° C.

water solubility [1]: 0.026 mg/mL (≈ 0.0713 mM)
solubility in glycofurol ([2]; glycofurol): 167 mg/mL (≈ 458 mM)
solubility in polyethylene glycol 200 ([2]; polyethylene glycol 200): 143 mg/mL (≈ 392 mM)
Compound: CCCCNc1cc(C(=O)O)cc(S(N)(=O)=O)c1Oc1ccccc1 [Bumetanide]
